Laboratory results taken from ChEMBL document CHEMBL1201862, “PubChem BioAssay data set” (2004).
Active and inactive are the calls of the source.

Legend:
[1] = inhibitors of firefly luciferase expression or activity, dose response, H4 neuroglioma cells, luminescence (AID 1990); format: functional, cell-based
[2] = luciferase reporter signal reduction – luminescence, H4-C neuroglioblastoma cells, dose response (AID 2458); format: functional, cell-based;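 further: H4 neuroglioblastoma cells stably carrying a luciferase reporter gene fusion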
cells [3] = format: functional, cell-based
[4] = Luminescence Cell-Based Dose Response HTS to Identify Inhibitors of 5'UTR Stem-Loop Driven Prion Protein mRNA Translation in H4 Neuroglioblastoma Cells. [Related pubchem assays: 1827 (Project Summary), 1813 (Primary HTS)]; format: functional
[5] = inhibitors of SNCA 5'UTR-driven reporter translation, confirmation, H4 neuroglioma cells, luminescence (AID 1988); format: functional, cell-based
[6] = inhibitors of intracellular T. cruzi replication, confirmation, NIH3T3 host cells, beta-gal luminescence (AID 2044); format: functional, cell-based;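 further: intracellular parasites grown in NIH/3T3 mouse fibroblasts as host cells; luminescent beta-galactosidase reporter signal from transgenic T. cruzi replicating inside host cells; inhibitors lower the luminescence signal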
[7] = cytotoxicity toward NIH3T3 fibroblasts, dose response, counter-screen, cell-based, ATP luminescence, mouse fibroblasts (AID 2010); format: functional;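 further: cells exposed to compound for about 90 hours before reading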
[8] = inhibitors of SNCA 5'UTR-driven translation, confirmation, luminescence, H4 neuroglioblastoma cells, dose confirmation (AID 2454); format: functional, cell-based;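 further: H4 neuroglioblastoma cells carrying an alpha-synuclein 5'UTR luciferase reporter; potency for inhibition of the luciferase signal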
[9] = cytotoxicity in HEK-293T cells, dose response, cytotoxicity control for TCR NF-kB inhibitor project, luminescence, T-cell screen hits (AID 489026); format: functional, cell-based;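 further: cells exposed to compound about 14 hours before the viability readout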
[10] = molecular target: Lysosomal acid glucosylceramidase (Homo sapiens, UniProt P04062); experiment: Dose response cell-based high throughput screening assay to identify enhancers of beta-glucosidase activity. [Related pubchem assays: 784 ]; format: functional
Sequence of Lysosomal acid glucosylceramidase (P04062 whole entry): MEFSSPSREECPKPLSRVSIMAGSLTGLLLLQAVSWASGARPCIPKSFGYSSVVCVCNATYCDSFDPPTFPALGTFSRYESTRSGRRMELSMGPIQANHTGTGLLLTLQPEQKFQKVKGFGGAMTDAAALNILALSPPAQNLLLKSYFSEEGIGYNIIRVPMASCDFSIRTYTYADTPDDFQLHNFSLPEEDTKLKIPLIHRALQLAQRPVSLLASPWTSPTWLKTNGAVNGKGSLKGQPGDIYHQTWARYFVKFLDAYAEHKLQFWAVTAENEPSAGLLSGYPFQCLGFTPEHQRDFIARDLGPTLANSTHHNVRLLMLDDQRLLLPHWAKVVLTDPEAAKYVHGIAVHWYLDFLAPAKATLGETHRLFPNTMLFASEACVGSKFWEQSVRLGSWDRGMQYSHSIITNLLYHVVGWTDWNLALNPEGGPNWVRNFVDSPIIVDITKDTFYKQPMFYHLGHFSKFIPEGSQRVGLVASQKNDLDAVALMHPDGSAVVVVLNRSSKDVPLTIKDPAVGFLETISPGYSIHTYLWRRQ

[11] = molecular target: Eukaryotic translation initiation factor 4H (Homo sapiens, UniProt Q15056); experiment: eIF4H inhibition in translation initiation, SAR follow-up (AID 435011); format: functional
[12] = molecular target: Polyadenylate-binding protein 1 (Homo sapiens, UniProt P11940); experiment: PABP inhibition in translation initiation, SAR follow-up (AID 435018); format: functional
Sequence of Polyadenylate-binding protein 1 (P11940 whole entry): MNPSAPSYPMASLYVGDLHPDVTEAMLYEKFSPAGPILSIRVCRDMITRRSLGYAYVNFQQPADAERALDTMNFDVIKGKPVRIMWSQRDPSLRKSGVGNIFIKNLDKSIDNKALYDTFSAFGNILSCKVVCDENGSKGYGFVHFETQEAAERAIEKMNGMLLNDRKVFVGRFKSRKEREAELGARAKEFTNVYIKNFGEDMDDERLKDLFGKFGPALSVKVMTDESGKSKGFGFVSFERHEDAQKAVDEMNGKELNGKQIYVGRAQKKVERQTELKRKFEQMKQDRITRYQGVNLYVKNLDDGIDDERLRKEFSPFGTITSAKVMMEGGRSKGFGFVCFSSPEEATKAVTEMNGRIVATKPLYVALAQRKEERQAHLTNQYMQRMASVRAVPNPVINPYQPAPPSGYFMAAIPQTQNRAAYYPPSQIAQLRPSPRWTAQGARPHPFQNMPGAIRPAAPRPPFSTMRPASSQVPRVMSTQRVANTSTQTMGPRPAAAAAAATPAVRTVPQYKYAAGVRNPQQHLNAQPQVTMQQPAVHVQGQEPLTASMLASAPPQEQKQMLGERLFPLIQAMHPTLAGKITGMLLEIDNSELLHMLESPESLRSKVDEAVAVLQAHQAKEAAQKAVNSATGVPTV

[13] = molecular target: T1, Alkaline phosphatase, tissue-nonspecific isozyme (Homo sapiens, UniProt P05186)
T1 sequence (P05186 whole entry): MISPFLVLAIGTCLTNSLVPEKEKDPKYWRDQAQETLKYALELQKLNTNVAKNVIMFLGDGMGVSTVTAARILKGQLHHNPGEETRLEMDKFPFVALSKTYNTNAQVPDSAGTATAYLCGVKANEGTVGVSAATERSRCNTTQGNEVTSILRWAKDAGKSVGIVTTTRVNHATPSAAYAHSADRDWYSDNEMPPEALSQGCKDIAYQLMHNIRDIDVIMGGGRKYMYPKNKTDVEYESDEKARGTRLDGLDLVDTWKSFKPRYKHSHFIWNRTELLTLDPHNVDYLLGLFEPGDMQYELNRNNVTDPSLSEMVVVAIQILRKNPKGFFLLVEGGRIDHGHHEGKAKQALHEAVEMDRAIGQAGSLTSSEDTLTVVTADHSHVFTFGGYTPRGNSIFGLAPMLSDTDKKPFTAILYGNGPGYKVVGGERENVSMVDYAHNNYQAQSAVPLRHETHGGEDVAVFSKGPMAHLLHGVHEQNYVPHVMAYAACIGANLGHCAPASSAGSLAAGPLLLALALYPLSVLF

[14] = molecular target: T2, RNA-binding protein pos-1 (Caenorhabditis elegans, UniProt G5EF15); experiment: inhibitors of POS-1/mex-3 RNA binding, dose response, biochemical, fluorescence polarization (AID 1964);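 further: purified POS-1 fused to maltose binding protein made in E. coli; potency of compounds blocking POS-1 binding to fluorescent RNA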
T2 sequence (G5EF15 whole entry): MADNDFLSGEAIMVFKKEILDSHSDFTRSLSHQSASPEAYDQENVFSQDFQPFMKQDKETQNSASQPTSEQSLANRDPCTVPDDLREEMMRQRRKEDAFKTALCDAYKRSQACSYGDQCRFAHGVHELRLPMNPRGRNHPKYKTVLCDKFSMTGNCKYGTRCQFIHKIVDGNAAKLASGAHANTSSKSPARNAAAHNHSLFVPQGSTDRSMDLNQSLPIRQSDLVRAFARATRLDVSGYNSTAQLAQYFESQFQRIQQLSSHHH

[15] = molecular target: T3, Long-chain-fatty-acid--AMP ligase FadD28 (Mycobacterium tuberculosis, UniProt P9WQ59); experiment: Fluorescence polarization aasay to screen for inhibitors that compete for the binding of FadD28 to a bisubstrate Measured in Biochemical System Using Plate Reader - 2147-01_Inhibitor_Dose_CherryPick_Activity.; format: functional, Mycobacterium tuberculosis H37Rv
T3 sequence (P9WQ59 whole entry): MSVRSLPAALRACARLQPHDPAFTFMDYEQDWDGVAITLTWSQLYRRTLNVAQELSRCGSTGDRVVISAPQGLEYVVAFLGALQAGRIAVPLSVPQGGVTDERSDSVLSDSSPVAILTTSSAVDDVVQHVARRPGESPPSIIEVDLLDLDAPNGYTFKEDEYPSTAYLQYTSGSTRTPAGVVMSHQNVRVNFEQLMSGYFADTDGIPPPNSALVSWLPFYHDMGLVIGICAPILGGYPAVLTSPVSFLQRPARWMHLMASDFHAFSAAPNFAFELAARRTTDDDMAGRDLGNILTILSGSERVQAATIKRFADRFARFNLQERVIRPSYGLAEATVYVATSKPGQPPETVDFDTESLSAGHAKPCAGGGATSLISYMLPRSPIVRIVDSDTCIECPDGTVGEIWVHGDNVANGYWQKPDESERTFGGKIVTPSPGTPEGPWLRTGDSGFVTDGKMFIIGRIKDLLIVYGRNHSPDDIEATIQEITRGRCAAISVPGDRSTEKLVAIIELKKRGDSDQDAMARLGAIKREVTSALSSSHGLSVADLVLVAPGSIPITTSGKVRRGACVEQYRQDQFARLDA

cells [16] = experiment: cells
[17] = molecular target: Neurotensin receptor type 1 (Homo sapiens, UniProt P30989); format: functional;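 further: Image-based confirmatory dose-response assay measuring agonist activity at NTR1; NTR1-expressing U2OS osteosarcoma cells imaged for beta-arrestin GFP spot formation; agonist potency where compounds increase beta-arrestin recruitment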
Sequence of Neurotensin receptor type 1 (P30989 whole entry): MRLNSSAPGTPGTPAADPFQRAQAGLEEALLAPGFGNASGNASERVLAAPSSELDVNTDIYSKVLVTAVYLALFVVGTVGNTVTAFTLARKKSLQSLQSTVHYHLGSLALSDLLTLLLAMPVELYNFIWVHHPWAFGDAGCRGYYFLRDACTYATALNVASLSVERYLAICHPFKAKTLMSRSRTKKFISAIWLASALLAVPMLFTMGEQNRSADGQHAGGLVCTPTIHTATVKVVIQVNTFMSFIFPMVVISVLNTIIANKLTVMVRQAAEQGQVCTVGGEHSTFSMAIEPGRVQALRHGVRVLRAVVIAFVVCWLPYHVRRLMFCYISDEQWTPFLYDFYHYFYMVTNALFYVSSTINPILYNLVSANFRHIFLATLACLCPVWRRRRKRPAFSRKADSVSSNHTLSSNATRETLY

## CC(=O)O[C@@]12CO[C@@H]1C[C@H](O)[C@@]1(C)C(=O)[C@H](O)C3=C(C)[C@@H](OC(=O)[C@H](O)[C@@H](NC(=O)c4ccccc4)c4ccccc4)C[C@@](O)([C@@H](OC(=O)c4ccccc4)C12)C3(C)C (stereo partly drawn)
[1]
  EC50: 9.95 µM (active)
[2]
  EC50: 1.21 µM (active)
Cells [3]
  EC50: 1.78 µM (active)
[4]
  EC50: > 120 µM (not active)
[5]
  EC50: < 0.1 µM (active)
[6]
  EC50: 0.132 µM (active)
[7]
  EC50: 6.71 µM (active)
[8]
  EC50: 1.16 µM (active)
[9]
  IC50: > 80 µM (inactive)

## CCCCN(C)C(=O)CCCCn1c(=O)[nH]c2cc(OCC)c(OCC)cc2c1=O
[10]
  EC50: > 10 µM (not active)

## O=C(CSc1ccc(-c2ccco2)nn1)NCCc1ccccc1
[11]
  IC50: 95.2 µM (active)
[12]
  IC50: > 100 µM (inactive)

## CC1Cc2ccccc2N1C(=O)COc1nc2ccccc2nc1N1CCOCC1 (stereo not drawn)
[13]
  EC50: > 100 µM (not active)

## CCN(CC)c1nc2cc(OC)ccc2cc1C#N
[10]
  EC50: > 10 µM (not active)

## O=C(O)c1cc(-c2ccc(/C=C3\NC(=O)N(c4ccc(Cl)cc4)C3=O)o2)ccc1Cl
[14]
  EC50: 39.7 µM (active)
[15]
  AC50: 19.5 µM (active)
Cells [16]
  IC50: 23.2 µM (active)

## COC(=O)c1ccc2c(=O)n(CCCCCC(=O)N3CCN(c4ccccc4)CC3)c(=O)[nH]c2c1
[17]
  EC50: 17.6 µM (active)
